Article PMC9981206 (Cancer Research Communications, 2022)
Values joined by “and” are separate entries in the source; they are usually repeats but may differ in a detail not shown here. Equal values may be shown once. Read-outs that look alike come from different tables or passages of the source.

What was measured:
B16-F10 tumors = test: B16-F10 mouse melanoma model
Procedure: The experiment using B16-F10 tumors was carried out as previously described ([39]) at Reaction Biology. […] Next, the mice were sacrificed, approximately 8 hours after last dosing. Protein and RNA extracts were prepared from 8 tumors within each treatment group.

MYC signaling = test: Immunoblot and real-time qRT-PCR, MYC signaling in cancer cell lines; assay type: cell-based, human; settings: 10 nmol/L, 24 hours, all TNKSi-sensitive cell lines
Text: (§1) The cell cultures were kept below 20 passages (∼10 weeks) and routinely monitored (upon thawing and monthly) for Mycoplasma infections with MycoAlert Mycoplasma Detection Kit (Lonza). All cell lines were authenticated by short tandem repeat profiling to confirm their identity (Eurofins). TNKS1/2 and PARP1 biochemical assays ([27, 32]), luciferase-based WNT/β-catenin signaling pathway reporter assay ([22, 27, 32]), anti-proliferative assays, and NCI-60 tumor cell line panel screen ([7]), immunoblot analyses ([7, 32, 39]), RNA isolation, and real-time qRT-PCR ([7, 27, 39, 40]) were performed as previously described.
(§2) Prostate (Pro) and central nervous system (CNS). […] Mean ± SD values for data from one representative experiment of more than three repeated assays, each with six replicates, are shown. C, Evaluation of WNT/β-catenin signaling. Left, immunoblots of cytoplasmic AXIN1 and nuclear active form of β-catenin [non-phospho (Ser33/37/Thr41)] and total β-catenin. Lamin B1 loading controls are duplicated for OVCAR-4 immunoblots. Right, real-time RT-qPCR analysis of the WNT/β-catenin signaling target gene AXIN2. […] Immunoblots show representative data from two or more independent experiments. Actin (cytoplasm) and lamin B1 (nucleus) were used as loading controls. […]

UO-31 cells = test: MTS colorimetric cell growth assay, UO-31; assay type: cell-based, human
Text: as §1, §2

[1] = system: RKO colon carcinoma cells; settings: 5 days of cultivation; cited from earlier work
[2] = Mouse pharmacokinetic analysis; assay type: in vivo; settings: CD-1 mice; for MRT last: read-out: MRT(0-24); for CL/F: read-out: Cl or Cl/F (converted); for bioavailability: read-out: F (fraction absorbed/bioavailability)
Procedure: The pharmacokinetic analyses were performed according to the standard protocols of Medicilon as previously described ([22, 27, 32]). […] The same vehicle and oral–twice daily treatment regime were used for all other experiments. Samples were collected after 15 and 30 minutes plus 1, 2, 4, and 6 hours for group 1, and after 6.5, 8, 10, and 24 hours for group 2.

[3] = 10 mg/kg oral twice daily, immunoblot
[4] = mouse, plasma, 0.4 mg/kg IV BID
[5] = mouse, plasma, 100 mg/kg PO BID

In the case of `CCOc1ccc(-c2nnc([C@H]3C[C@H](NC(=O)c4cccc5nccnc45)C3)n2-c2ccccc2F)nc1` [OM-153], the “AXIN1 protein in tumors” value (B16-F10 tumors; [3]) was “significant stabilization”, the β-catenin in tumors (B16-F10 tumors; [3]) was “insignificant downregulation” and the “transcription of the target gene Axin2 in tumors” value (B16-F10 tumors; 10 mg/kg oral twice daily, real-time qRT-PCR) was “significantly decreased”. The “tumor end volume inhibition compared with the vehicle control” value (B16-F10 tumors; 0.1–10 mg/kg OM-153 oral twice daily in combination with anti–PD-1 (10 mg/kg i.p. day 6, 9, 12)) was 51%–65%, the body weights (B16-F10 tumors; any of the treatment groups, day 6 through 20) was “No alterations in body weights” and the “antitumor effect, monotherapy controls” value (B16-F10 tumors; monotherapy, 10 mg/kg) was “did not exert any significant antitumor effects”. The “MYC and CCND1 protein and transcription of MYC and CCND1” value (MYC signaling) was “decreased”, the GI50 (UO-31 cells; Homo sapiens, UO-31, 120 h) was over 10 nM and the GI25 (UO-31 cells; UO-31, 5 days) was 3.5 nmol/L. The GI50 [1] was over 10 µM, the “RKO GI25” value [1] was > 10,000 nmol/L and the Cmax2 ([2]; 10 mg/kg PO BID) was 2,700 ng/mL. For the same compound, the “Cmax2 (plasma concentration after the second dose)” value ([2]; 10 mg/kg oral twice daily) was 5.3 µmol/L, the “plasma concentration after 24 hours” value ([2]; 10 mg/kg oral twice daily) was “below the detection threshold” and the Cmax2 ([2]; 100 mg/kg PO BID) was 20,000 ng/mL. For the same compound, the “Cmax2 (plasma concentration after the second dose)” value ([2]; 100 mg/kg oral twice daily) was 39.2 µmol/L, the half-life [2, 4] was 35.4 min and the MRT last [2, 4] was 3.6 h. It also gave a half-life ([2]; mouse, plasma, 2 mg/kg IV BID) of 33.6 min, an MRT last ([2]; mouse, plasma, 2 mg/kg IV BID) of 3.5 h and a half-life ([2]; mouse, plasma, 10 mg/kg PO BID) of 162 min. It also gave a CL/F ([2]; mouse, plasma, 10 mg/kg PO BID) of 16.7 mL/min/kg, a bioavailability ([2]; mouse, plasma, 10 mg/kg PO BID) of 100% and an MRT last ([2]; mouse, plasma, 10 mg/kg PO BID) of 5.8 h. For the same compound, the half-life [2, 5] was 354 min, the CL/F [2, 5] was 18.3 mL/min/kg and the bioavailability [2, 5] was 130%. For the same compound, the MRT last [2, 5] was 8.4 h and the concentration at 24 h ([2]; mouse, plasma, 100 mg/kg oral twice daily, read-out: plasma concentration after 24 hours) was 1900 ng/mL and 3.7 µM.
